Assay results as given in US12357603B2, “Acyl sulfonamides for treating cancer” (Bayer Aktiengesellschaft, priority 2019, dated 2025).
Like-named read-outs stand apart in the source and are kept apart here.

Key:
[1] = tested on: ZR-75-1 cells; experiment: Proliferation assay ZR-75-1 (Alamar Blue, 144 h); assay type: cell-based; settings: arithmetic mean, read-out: ZR75-1 proliferation assay, EC50 [M] (arithmetic mean)
How it was run: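 Alamar Blue fluorescence (590 nm, 2 h reagent step) measured viability after 144 h compound exposure at 37 °C, 5% CO2. Compounds spanned 2.0×10E-5 to 2.0×10E-9 M in 9 dilutions at 0.2% DMSO, in triplicate, added 24 h after plating 3000 cells/well in RPMI 1640 plus 2.5% FBS.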

[2] = target: Recombinant human His-tagged Kat6a protein (amino acids 194-810) (Homo sapiens (Human), UniProt Q92794); experiment: Kat6a activity assay (TR-FRET, acetylation of biotinylated Histone-H4-derived peptide); assay type: biochemical; settings: 60 mins at 22° C., read-out: KAT6A-DPF/HAT domain IC50 [mol/l] (arithmetic mean)
How it was run: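 TR-FRET read-out of H4 K8 acetylation, using anti-acetyl-K8 antibody and streptavidin acceptor, after anacardic acid stop; IC50 from four-parameter regression normalized to DMSO. Reaction: recombinant human Kat6a aa 194-810 (insect-cell derived), 220 nM H4 1-24 peptide, 600 nM acetyl-CoA, pH 8, 22 °C, 60 min, compounds 0.01-20 μM.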

[3] = tested on: ESR1 transcription (luciferase signal in MVLN cells); experiment: Repression of ESR1 transcription, luciferase reporter in MVLN cells; assay type: cell-based; settings: inhibition of luciferase signal in MVLN cells, arithmetic mean
How it was run: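 Luminescence from an ER-driven Vitellogenin A2 element–luciferase reporter was measured after 24 h of treatment of MVLN cells, in duplicate wells. Alamar Blue (2 h, 530/590 nm) served as a cell-density control.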

[4] = target: Recombinant human GST-tagged Kat6b protein (431-end) (Homo sapiens, UniProt Q8WYB5); experiment: Kat6b activity assay (TR-FRET, acetylation of biotinylated Histone-H4-derived peptide); assay type: biochemical; settings: 30 mins at 22° C., read-out: KAT6B activity assay IC50 [mol/l] (arithmetic mean)
[5] = tested on: MDA-MB-436 cells; experiment: Proliferation assay MDA-MB-436, negative control cell line (Alamar Blue, 144 h); assay type: cell-based; settings: arithmetic mean
How it was run: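 Viability read as Alamar Blue fluorescence (590 nm, 2 h) after 144 h compound exposure at 37 °C, 5% CO2. Cells seeded at 3000 per well in 2.5% FBS DMEM/Ham's F12, dosed a day later over 2.0×10E-9–2.0×10E-5 M in 9 steps with 0.2% DMSO, in triplicate.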

[6] = tested on: COLO 684 cells; experiment: Proliferation assay COLO 684 (Alamar Blue, 144 h); assay type: cell-based; settings: Homo sapiens, COLO684, uterus adenocarcinoma, read-out: proliferation assays
Experimental: (§1) Assessment of the Anti-Proliferative Effect of Compounds in Different Cell Lines
(§2) To determine further cancer indications that respond to treatment with KAT6A or KAT6B3 inhibitors various cell lines carrying a KAT6A and/or KAT6B3 focal amplification or high KAT6A and/or KAT6B3 protein expression were used for proliferation assays with selected compounds.
(§3) 24 hours later, cells were treated with compounds (stock solution, 10 mM in DMSO) using the HP D300 Digital Dispenser in a concentration range of 2.0×10E-5 M to 2.0×10E-9 M in a single-dot curve with 9 dilutions and a DMSO concentration of 0.2%. Each sample was prepared as triplicate and rim wells were excluded. Plates were incubated at 37° C. and 5% CO2 for 144 h. Cell viability was measured by adding 10 μL of Alamar Blue Reagent (Invitrogen #DAL 1100) and plates were incubated for 2 h at 37° C. and 5% CO2. Fluorescence was measured at 590 nm wavelength with a Tecan Spark or Victor X3 MTP-Reader (PerkinElmer).

[7] = tested on: DMS 53 cells; experiment: Proliferation assay DMS 53 (Alamar Blue, 144 h); assay type: cell-based; settings: Homo sapiens, DMS53, small cell lung cancer, read-out: proliferation assays
Experimental: as §1, §2, §3

[8] = tested on: LNCAP cells; experiment: Proliferation assay LNCAP (Alamar Blue, 144 h); assay type: cell-based; settings: Homo sapiens, prostate carcinoma, 10 nM R1881, read-out: proliferation assays
Experimental: as §1, §2, §3

[9] = tested on: EFM-19 cells; experiment: Proliferation assay EFM-19 (Alamar Blue, 144 h); assay type: cell-based; settings: Homo sapiens, EFM19, breast carcinoma, read-out: proliferation assays
Experimental: as §1, §2, §3

[10] = tested on: THP-1 cells; experiment: Proliferation assay THP-1 (Alamar Blue, 144 h); assay type: cell-based; settings: Homo sapiens, THP1, acute monocytic leukemia, read-out: proliferation assays
Experimental: as §1, §2, §3

[11] = tested on: JMSU-1 cells; experiment: Proliferation assay JMSU-1 (Alamar Blue, 144 h); assay type: cell-based; settings: JMSU1, bladder carcinoma, read-out: proliferation assays
Experimental: as §1, §2, §3

[12] = tested on: DMS 114 cells; experiment: Proliferation assay DMS 114 (Alamar Blue, 144 h); assay type: cell-based; settings: Homo sapiens, DMS114, small cell lung cancer, read-out: proliferation assays
Experimental: as §1, §2, §3

[13] = tested on: LCLC-97TM1 cells; experiment: Proliferation assay LCLC-97TM1 (Alamar Blue, 144 h); assay type: cell-based; settings: Homo sapiens, LCLC97TM1, large cell lung carcinoma, read-out: proliferation assays
Experimental: as §1, §2, §3

[14] = target: Recombinant human GST-tagged Kat6b protein (431-end); experiment: Kat6b activity assay (TR-FRET, acetylation of biotinylated Histone-H4-derived peptide); assay type: biochemical; settings: 30 mins at 22° C., read-out: KAT6B activity assay IC50 [mol/l] (arithmetic mean)
[15] = tested on: CAMA-1 cells; experiment: Proliferation assay CAMA-1 (Alamar Blue, 144 h); assay type: cell-based; settings: Homo sapiens, CAMA1, breast adenocarcinoma, read-out: proliferation assays
Experimental: as §1, §2, §3

[16] = tested on: T47D cells; experiment: Proliferation assay T47D (Alamar Blue, 144 h); assay type: cell-based; settings: Homo sapiens, breast ductal carcinoma, read-out: proliferation assays
Experimental: as §1, §2, §3

[17] = Homo sapiens, MDA-MB-436, 144 h

Chain of Recombinant human His-tagged Kat6a protein (amino acids 194-810) (Q92794 194-810): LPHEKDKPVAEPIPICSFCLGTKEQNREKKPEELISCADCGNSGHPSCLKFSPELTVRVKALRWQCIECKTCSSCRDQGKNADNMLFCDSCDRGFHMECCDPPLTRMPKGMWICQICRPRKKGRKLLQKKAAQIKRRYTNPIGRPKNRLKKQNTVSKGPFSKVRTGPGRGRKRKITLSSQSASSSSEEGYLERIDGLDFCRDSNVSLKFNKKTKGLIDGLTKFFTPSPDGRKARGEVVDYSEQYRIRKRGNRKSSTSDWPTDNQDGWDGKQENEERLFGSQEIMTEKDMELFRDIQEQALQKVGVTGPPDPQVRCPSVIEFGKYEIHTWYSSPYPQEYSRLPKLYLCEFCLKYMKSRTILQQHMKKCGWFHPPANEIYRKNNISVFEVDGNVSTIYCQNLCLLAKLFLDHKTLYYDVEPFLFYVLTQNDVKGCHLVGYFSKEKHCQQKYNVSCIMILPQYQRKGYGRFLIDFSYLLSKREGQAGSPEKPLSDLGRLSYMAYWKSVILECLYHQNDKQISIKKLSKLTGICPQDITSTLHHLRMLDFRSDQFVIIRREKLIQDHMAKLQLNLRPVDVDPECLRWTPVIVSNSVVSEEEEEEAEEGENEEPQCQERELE
Chain of Recombinant human GST-tagged Kat6b protein (431-end) (Homo sapiens, UniProt Q8WYB5) (Q8WYB5 whole entry, looked up): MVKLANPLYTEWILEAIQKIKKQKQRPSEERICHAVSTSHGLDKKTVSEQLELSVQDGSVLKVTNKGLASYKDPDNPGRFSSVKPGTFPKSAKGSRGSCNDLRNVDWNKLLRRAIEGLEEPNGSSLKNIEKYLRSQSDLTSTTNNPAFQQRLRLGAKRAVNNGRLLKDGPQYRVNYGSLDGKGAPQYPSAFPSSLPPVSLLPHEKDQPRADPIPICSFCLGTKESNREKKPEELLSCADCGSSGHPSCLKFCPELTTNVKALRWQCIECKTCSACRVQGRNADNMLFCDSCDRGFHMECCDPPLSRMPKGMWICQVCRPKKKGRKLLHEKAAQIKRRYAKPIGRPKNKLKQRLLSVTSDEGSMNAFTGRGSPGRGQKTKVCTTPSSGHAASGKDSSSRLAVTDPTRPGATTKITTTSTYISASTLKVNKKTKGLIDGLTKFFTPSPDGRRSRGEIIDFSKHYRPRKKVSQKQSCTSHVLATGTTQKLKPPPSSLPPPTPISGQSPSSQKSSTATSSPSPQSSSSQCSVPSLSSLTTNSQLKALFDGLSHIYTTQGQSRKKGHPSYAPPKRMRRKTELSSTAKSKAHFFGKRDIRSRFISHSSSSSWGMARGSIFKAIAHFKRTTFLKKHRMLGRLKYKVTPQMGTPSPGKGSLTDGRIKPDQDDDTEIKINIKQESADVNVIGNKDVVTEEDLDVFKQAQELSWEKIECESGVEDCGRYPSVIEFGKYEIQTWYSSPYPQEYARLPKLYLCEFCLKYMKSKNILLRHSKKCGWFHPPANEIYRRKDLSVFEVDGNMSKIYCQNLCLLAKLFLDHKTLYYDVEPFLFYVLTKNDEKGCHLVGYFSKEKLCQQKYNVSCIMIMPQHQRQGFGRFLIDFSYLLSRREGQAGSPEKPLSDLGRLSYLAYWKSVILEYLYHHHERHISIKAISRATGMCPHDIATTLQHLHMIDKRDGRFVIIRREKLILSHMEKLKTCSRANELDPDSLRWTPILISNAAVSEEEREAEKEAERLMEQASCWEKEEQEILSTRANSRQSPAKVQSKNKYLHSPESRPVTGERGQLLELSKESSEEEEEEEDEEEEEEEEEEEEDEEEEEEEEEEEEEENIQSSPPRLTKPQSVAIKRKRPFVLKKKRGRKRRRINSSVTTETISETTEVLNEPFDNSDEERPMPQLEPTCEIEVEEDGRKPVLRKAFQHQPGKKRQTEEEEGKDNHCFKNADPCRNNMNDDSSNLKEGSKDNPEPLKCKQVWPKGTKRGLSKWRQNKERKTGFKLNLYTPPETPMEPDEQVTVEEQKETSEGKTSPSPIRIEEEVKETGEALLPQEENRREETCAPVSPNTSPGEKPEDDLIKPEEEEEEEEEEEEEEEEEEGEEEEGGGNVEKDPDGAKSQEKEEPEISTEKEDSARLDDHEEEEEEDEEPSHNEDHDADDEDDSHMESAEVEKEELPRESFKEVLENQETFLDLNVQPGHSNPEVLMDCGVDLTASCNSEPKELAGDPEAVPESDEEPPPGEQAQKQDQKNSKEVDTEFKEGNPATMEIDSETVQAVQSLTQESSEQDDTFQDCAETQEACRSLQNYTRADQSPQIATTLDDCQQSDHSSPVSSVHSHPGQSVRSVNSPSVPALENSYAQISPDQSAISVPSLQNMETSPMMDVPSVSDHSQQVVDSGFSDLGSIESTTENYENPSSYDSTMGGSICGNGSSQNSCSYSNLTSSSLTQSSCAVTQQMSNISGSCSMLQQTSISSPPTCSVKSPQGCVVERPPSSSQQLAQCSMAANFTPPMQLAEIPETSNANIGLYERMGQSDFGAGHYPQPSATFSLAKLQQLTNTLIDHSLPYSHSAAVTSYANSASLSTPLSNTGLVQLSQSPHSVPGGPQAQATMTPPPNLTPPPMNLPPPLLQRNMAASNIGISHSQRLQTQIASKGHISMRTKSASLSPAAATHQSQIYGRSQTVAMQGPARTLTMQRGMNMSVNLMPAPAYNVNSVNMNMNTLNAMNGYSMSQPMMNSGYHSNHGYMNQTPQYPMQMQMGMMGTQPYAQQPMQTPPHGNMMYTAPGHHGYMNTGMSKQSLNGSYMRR

Row | Structure (SMILES) | EC50 ([1]; Homo sapiens, ZR-75-1, 144 h) [M] | IC50 [2] [nM] | IC50 ([3]; Homo sapiens, MVLN) [nM] | EC50 [5, 17] [nM] | IC50 [14] [nM] | other results
1 | CC(C)c1ccc(OCC2CC2(F)F)c(S(=O)(=O)NC(=O)c2cc3ccc(N(C)C)cc3o2)c1 (racemic) [Example 186, N-((2-((2,2-difluorocyclopropyl)methoxy)-5-isopropylphenyl)sulfonyl)-6-(dimethylamino)benzofuran-2-carboxamide (rac)] | 5.59e-08 | 8.47 | 23.6 | > 20000 | – | IC50 [4]: 26.1 nM
2 | CN(C)c1ccc2cc(C(=O)NS(=O)(=O)c3ccccc3-c3ccccc3)oc2c1 [Example 14, N-([1,1′-Biphenyl]-2-sulfonyl)-6-(dimethylamino)-1-benzofuran-2-carboxamide] | – | – | 121 | 18400 | – | EC50 [1]: 1.2e-07 M; EC50 [6]: 184 nM; EC50 [7]: 490 nM; EC50 [8]: 4160 nM; EC50 [9]: 223 nM; EC50 [10]: 238 nM; EC50 [11]: 605 nM
3 | CCOc1ccccc1S(=O)(=O)NC(=O)c1cc2ccc(N(C)C)cc2o1 [Example 19, 6-(Dimethylamino)-N-(2-ethoxybenzene-1-sulfonyl)-1-benzofuran-2-carboxamide] | – | 84.6 | – | – | 66.9 | EC50 [12]: 136 nM; EC50 [1]: 5.96e-08 M; IC50 [3]: 42.2 nM; EC50 [6]: 156 nM; EC50 [13]: 447 nM; EC50 [5]: > 20000 nM; EC50 [7]: 130 nM; EC50 [8]: 1630 nM; EC50 [9]: 105 nM; EC50 [10]: 95.8 nM; EC50 [15]: 268 nM; EC50 [16]: 170 nM; EC50 [11]: 70.6 nM
4 | CCCOc1ccccc1S(=O)(=O)NC(=O)c1cc2ccc(N(C)C)cc2o1 [Example 23, 6-(Dimethylamino)-N-(2-propoxybenzene-1-sulfonyl)-1-benzofuran-2-carboxamide] | 2.34e-08 | 79.3 | 98 | > 20000 | 99.2 | EC50 [12]: 205 nM; EC50 [6]: 92.9 nM; EC50 [13]: 157 nM; EC50 [7]: 367 nM; EC50 [8]: > 20000 nM; EC50 [9]: 155 nM; EC50 [15]: 415 nM; EC50 [16]: 197 nM
5 | CN(C)c1ccc2cc(C(=O)NS(=O)(=O)c3cccc4c3OC(F)(F)C(F)(F)O4)oc2c1 [Example 134, 6-(Dimethylamino)-N-(2,2,3,3-tetrafluoro-2,3-dihydro-1,4-benzodioxine-5-sulfonyl)-1-benzofuran-2-carboxamide] | – | 30.7 | – | – | – | EC50 [1]: 1.26e-07 M; IC50 [3]: 76.8 nM; IC50 [4]: 25.9 nM; EC50 [5]: > 20000 nM
6 | CC(C)c1ccc(OC2CCC2)c(S(=O)(=O)NC(=O)c2cc3ccc(N(C)C)cc3o2)c1 [Example 184, N-((2-Cyclobutoxy-5-isopropylphenyl)sulfonyl)-6-(dimethylamino)benzofuran-2-carboxamide] | 6.98e-07 | 15.9 | 22.5 | > 20000 | – | IC50 [4]: 47.8 nM
7 | COc1ccc(C(C)(C)C)cc1S(=O)(=O)NC(=O)c1cc2ccc(N(C)C)cc2o1 [Example 185, N-((5-(tert-butyl)-2-methoxyphenyl)sulfonyl)-6-(dimethylamino)benzofuran-2-carboxamide] | 1.69e-08 | 2.63 | 15.1 | > 20000 | 13.9 | –
8 | CN(C)c1cc(C(F)(F)F)c2cc(C(=O)NS(=O)(=O)c3ccccc3-c3ccccc3)oc2c1 [Example 193, N-([1,1′-biphenyl]-2-ylsulfonyl)-6-(dimethylamino)-4-(trifluoromethyl)benzofuran-2-carboxamide] | 6.55e-06 | 7.14 | 1690 | > 20000 | 12.8 | –
9 | CCOc1ccccc1S(=O)(=O)NC(=O)c1cc2c(C(F)(F)F)cc(N(C)C)cc2o1 [Example 195, 6-(Dimethylamino)-N-((2-ethoxyphenyl)sulfonyl)-4-(trifluoromethyl)benzofuran-2-carboxamide] | 8.71e-07 | 5.73 | 716 | > 20000 | 14.7 | –
10 | Cc1ccc2cccc(S(=O)(=O)NC(=O)c3cc4c(C(F)(F)F)cc(N(C)C)cc4o3)c2n1 [Example 196, 6-(Dimethylamino)-N-((2-methylquinolin-8-yl)sulfonyl)-4-(trifluoromethyl)benzofuran-2-carboxamide] | 2.12e-06 | 1.47 | 295 | > 14100 | 1.78 | –
11 | CN(C)c1ccc2cc(C(=O)NS(=O)(=O)c3ccccc3-c3ccccc3)oc2c1C(F)(F)F [Example 202, N-([1,1′-biphenyl]-2-sulfonyl)-6-(dimethylamino)-7-(trifluoromethyl)-1-benzofuran-2-carboxamide] | > 2e-05 | 1970 | > 20000 | > 20000 | 3010 | –
12 | CCOc1ccccc1S(=O)(=O)NC(=O)c1cc2ccc(N(C)C)cc2o1 [Example 223] | 5.87e-08 | 106 | 80.2 | > 20000 | 99.1 | –
13 | CC(C)Oc1ccccc1S(=O)(=O)NC(=O)c1cc2ccc(N(C)C)cc2o1 [Example 224] | 5.24e-08 | 58.3 | 31.4 | > 20000 | 76.4 | –
14 | Cc1ccc2cccc(S(=O)(=O)NC(=O)c3cc4ccc(N(C)C)cc4o3)c2n1 [Example 225] | 7.21e-08 | 22.7 | 36.2 | > 20000 | 25.8 | –
